Where a SMILES comes first, the peptide text is derived from it. The star is where a group is joined. Myristoyl = CCCCCCCCCCCCCC(=O)*
Experiments:
Type in all cases: cell-based, human
[1] = system: Cost ALCL cells (NPM–ALK); assay: Cell viability assay (CellTiterGlo, ATP content); conditions: increasing doses, 48 h
Protocol: (§1) At the end of incubation, cell viability was assessed by measuring the ATP content of wells using the luminescence-based CellTiterGlo assay (Promega) with a Berthold Mithras (http://www.berthold.com) plate reader. Each culture condition was assayed in triplicate.

[2] = system: SH-SY5Y neuroblastoma cells (ALK-F1174L); assay: Cell viability assay (CellTiterGlo, ATP content); conditions: increasing doses, 48 h
Protocol: as §1

caspase 3 in Cost cells = assay: Western blot of caspase 3 cleavage; conditions: Cost cells treated 6 h; P36 10 μM, doxorubicin 2 μM; compared with culture medium
Protocol: Cells were washed once with PBS, pelleted, and extracted in RIPA buffer (150 mM NaCl, 20 mM Tris-HCl, pH 7.7, 4 mM EDTA, 0.5% Triton X-100) containing 10 μg/ml leupeptin, 2 μg/ml aprotinin, 1 mM 4-2-aminoethyl-benzenesulfonyl fluoride, 1 mM sodium orthovanadate, and 4 mM sodium fluoride for 30 min on ice. Cell extracts were either centrifuged at 10 000 × g for 20 min at 4 °C and the supernatant recovered, or sonicated for better extraction of nuclear proteins. The protein content was quantified using the Bio-Rad (www.biorad.com) Bradford protein assay. For western blotting, total cell proteins were subjected to SDS-polyacrylamide gel electrophoresis (SDS-PAGE) in a 4–12% bis/tris acrylamide (Novex NuPAGE, Invitrogen) gradient gel using the Nupage system with Mops SDS buffer under reducing conditions and transferred for 3 h at 60 V onto a nitrocellulose membrane. The blots were hybridized with the following primary antibodies:
ZAL4 anti-human ALK rabbit monoclonal antibody (1/200, Invitrogen), phospho-ALK (Y1604) (1/1000, #3341, Cell Signaling Technology, www.cellsignal.com) rabbit antiserum, mouse monoclonal anti-caspase 3 (1/200, sc-7148, Santa Cruz Biotechnologies, www.scbt.com), rabbit polyclonal anti-p53 (1/500, #554167, BD Pharmingen, www.bdbiosciences.com) and rabbit polyclonal anti-GAPDH (1/2000, Millipore, www.millipore.com) antibodies. […]

SMILES: CCCCCCCCCCCCCC(=O)N[C@@H](CC(N)=O)C(=O)N[C@H](C(=O)N[C@H](C(=O)N[C@@H](CC(C)C)C(=O)N[C@H](C(=O)N[C@@H](CCCNC(=N)N)C(=O)NCC(=O)N[C@@H](CC(C)C)C(=O)NCC(=O)N[C@@H](Cc1c[nH]cn1)C(=O)NCC(=O)N[C@@H](C)C(N)=O)[C@@H](C)CC)[C@@H](C)O)[C@@H](C)CC [P12-5] (Myristoyl-NITLIRGLGHGA-NH2)
- effect on cell viability (cytotoxicity) [1]: dose-dependent cytotoxicity

SMILES: CCCCCCCCCCCCCC(=O)N[C@@H](CCC(=O)O)C(=O)NCC(=O)N[C@@H](CC(C)C)C(=O)N[C@@H](CC(C)C)C(=O)N[C@@H](Cc1ccccc1)C(=O)N[C@H](C(=O)N[C@@H](Cc1ccc(O)cc1)C(=O)N[C@@H](Cc1c[nH]cn1)C(=O)N[C@H](C(=O)N[C@H](C(=O)N[C@@H](CCCCN)C(=O)N[C@@H](CCCNC(=N)N)C(=O)N[C@@H](CC(=O)O)C(=O)N[C@@H](Cc1ccc(O)cc1)C(=O)NCC(=O)N[C@@H](CC(N)=O)C(=O)N[C@@H](CC(N)=O)C(=O)N[C@@H](CC(C)C)C(=O)N[C@@H](C)C(=O)N[C@@H](CC(=O)O)C(=O)N[C@@H](CO)C(=O)N[C@H](C(=O)NCC(=O)N1CCC[C@H]1C(=O)NCC(=O)N[C@@H](CC(N)=O)C(=O)N[C@H](C(=O)N[C@@H](CO)C(=O)N[C@@H](C)C(=O)N1CCC[C@H]1C(=O)N[C@@H](CO)C(=O)N[C@H](C(=O)N[C@@H](CS)C(=O)N[C@@H](CCCCN)C(=O)N[C@@H](CCCNC(=N)N)C(=O)N[C@@H](CCCCN)C(N)=O)[C@@H](C)CC)[C@@H](C)O)[C@@H](C)CC)[C@@H](C)O)C(C)C)[C@@H](C)CC [P36scr] (Myristoyl-EGLLFIYHVTKRDYGNNLADSIGPGNTSAPSICKRK-NH2)
- effect on cell viability (cytotoxicity) [2]: failed to affect
- effect on cell viability (cytotoxicity) [1]: failed to affect

SMILES: CCCCCCCCCCCCCC(=O)N[C@@H](CO)C(=O)N[C@@H](CO)C(=O)N[C@H](C(=O)N[C@@H](CO)C(=O)N[C@@H](CC(=O)O)C(=O)N[C@@H](CC(C)C)C(=O)N[C@@H](CCCCN)C(=O)N[C@@H](CCC(=O)O)C(=O)N[C@H](C(=O)N1CCC[C@H]1C(=O)N[C@@H](CCCNC(=N)N)C(=O)N[C@@H](CCCCN)C(N)=O)C(C)C)[C@@H](C)CC [P12-3] (Myristoyl-SSISDLKEVPRK-NH2)
- effect on cell viability (cytotoxicity) [1]: dose-dependent cytotoxicity

SMILES: CCCCCCCCCCCCCC(=O)N[C@@H](CC(=O)O)C(=O)N[C@@H](Cc1ccc(O)cc1)C(=O)N[C@@H](CC(N)=O)C(=O)N1CCC[C@H]1C(=O)N[C@@H](CC(N)=O)C(=O)N[C@@H](Cc1ccc(O)cc1)C(=O)N[C@@H](CS)C(=O)N[C@@H](Cc1ccccc1)C(=O)N[C@@H](C)C(=O)NCC(=O)N[C@@H](CCCCN)C(=O)N[C@H](C(N)=O)[C@@H](C)O [P12-1] (Myristoyl-DYNPNYCFAGKT-NH2)
- effect on cell viability (cytotoxicity) [1]: no effect

SMILES: COc1cccc2c1C(=O)c1c(O)c3c(c(O)c1C2=O)C[C@@](O)(C(=O)CO)C[C@@H]3O[C@H]1C[C@H](N)[C@H](O)[C@H](C)O1 [doxorubicin]
- caspase 3 cleavage (western blot) (caspase 3 in Cost cells): increased caspase 3 cleavage

SMILES: CCCCCCCCCCCCCC(=O)N[C@@H](CCCCN)C(=O)N[C@@H](CCC(=O)O)C(=O)N[C@H](C(=O)N1CCC[C@H]1C(=O)N[C@@H](CCCNC(=N)N)C(=O)N[C@@H](CCCCN)C(=O)N[C@@H](CC(N)=O)C(=O)N[C@H](C(=O)N[C@H](C(=O)N[C@@H](CC(C)C)C(=O)N[C@H](C(=O)N[C@@H](CCCNC(=N)N)C(N)=O)[C@@H](C)CC)[C@@H](C)O)[C@@H](C)CC)C(C)C [P12-4] (Myristoyl-KEVPRKNITLIR-NH2)
- effect on cell viability (cytotoxicity) [1]: no effect

— paper PMC4669685, “Peptides derived from the dependence receptor ALK are proapoptotic for ALK-positive tumors” (Cell Death & Disease, 2015)
